Source: EP1717249A1, “Peptides containing a cholesterol recognition sequence and their uses” (GEORGETOWN UNIVERSITY, priority 1998, dated 1999)

How the values were obtained:
recombinant mPBR = molecular target: T1, recombinant mPBR (Mus musculus, UniProt P50637); assay: 3H-PK 11195 radioligand binding to recombinant PBR (wild-type and mutated) expressed in IPTG-induced E. coli; conditions: 3H-PK 11195 binding to IPTG-induced bacteria expressing mouse PBR, Scatchard analysis
T1 construct: made in house; host or cells: Escherichia coli BL21(DE3), IPTG-induced
Excerpt: Construction of the mouse PBR expression vector (pET15bPBR) and Expression of Recombinant PBR in bacteria- The pET system (Novagen, Madison, WI) was used to express the MA-10 mouse PBR (mPBR) recombinant protein. […] This mPBR fragment was inserted into pET15b vector and linearized with NdeI and XhoI downstream of the T71ac promoter. Recombinant mPBR expression vector was used to transform the BL21(DE3) Escherichia coli strain (Novagen) where the expression of recombinant mPBR protein was induced by 1mM isopropyl-1-thiol-β-D-galactopyranoside (IPTG). PBR protein expression was monitored by SDS-PAGE followed by Coomassie Blue staining or immunoblot analysis using anti-PBR antiserum (Amri et al. 1996, supra). Binding specificity of the IPTG-induced PBR in E. coli was determined in binding studies where specific binding of ^3H-PK 11195 (1.0 nM) was measured in the presence of the indicated concentrations of the indicated ligands.
Radioligand binding assays- ^3H-1-(2-chlorophenyl)-N-methyl-N-(1-methyl-propyl)-3-isoquinolinecarboxamide (PK 11195) binding studies were performed as we previously described (Papadopoulos, V. et al. 1990, J. Biol. Chem. 265: 3772-3779; Garnier, M. et al. 1994, Mol. Pharm. 45:201-211). […]

PBR = molecular target: T2, PBR (Mus musculus, UniProt P50637); assay: Ligand-induced release of 3H-cholesterol from membranes of IPTG-induced transformed bacteria; assay type: biochemical; conditions: cholesterol-loaded bacterial membranes (Fig. 3F)
T2 construct: made in house; host or cells: Escherichia coli BL21(DE3), IPTG-induced
Description: ^3H-Cholesterol uptake by E. coli cells was examined using the indicated concentrations of control or IPTG-treated transformed bacteria incubated in the presence of 6.7 nM ^3H-cholesterol (50.0 Ci/mmol) for 60 min at 37°C. Specific cholesterol uptake is defined as IPTG-induced minus basal values.

isolated mitochondria = conditions: cited from earlier work

Bmax (recombinant mPBR) | Compound | 3H-cholesterol released from cholesterol-loaded bacterial membranes (PBR) | intramitochondrial cholesterol transport and pregnenolone formation (mitochondrial steroidogenesis) (isolated mitochondria)
0.23 pmol/mg protein | CCC(C)N(C)C(=O)c1cc2ccccc2c(-c2ccccc2Cl)n1 (stereo not drawn) [PK 11195, 1-(2-chlorophenyl)-N-methyl-N-(1-methyl-propyl)-3-isoquinolinecarboxamide] | cholesterol was liberated from the membranes | 
 | TTN: naturally occurring processing product of DBI, the triakontatetrapeptide TTN (DBI17-50) (KTKPSDEEMLFIYGHYKQATVGDINTERPGMLDF; Triakontatetraneuropeptide; UniProt P07108 17-50, looked up, fragment) |  | able to mimic the effect of DBI
